This experiment concerns the target T1, Dual specificity protein phosphatase 6 (Rattus norvegicus, UniProt Q64346).
T1 sequence (Q64346 whole entry): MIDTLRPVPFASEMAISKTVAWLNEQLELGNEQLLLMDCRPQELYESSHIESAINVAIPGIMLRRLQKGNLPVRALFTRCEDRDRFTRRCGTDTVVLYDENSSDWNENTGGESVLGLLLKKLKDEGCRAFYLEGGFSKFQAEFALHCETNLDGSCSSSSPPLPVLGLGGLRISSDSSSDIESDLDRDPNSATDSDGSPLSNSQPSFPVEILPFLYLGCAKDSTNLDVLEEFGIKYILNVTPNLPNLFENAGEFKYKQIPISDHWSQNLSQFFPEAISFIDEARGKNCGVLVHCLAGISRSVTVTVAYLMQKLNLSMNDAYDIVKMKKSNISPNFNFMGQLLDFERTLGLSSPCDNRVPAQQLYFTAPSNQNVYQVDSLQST
As to the kind of experiment: MKP-3 phosphatase inhibitors, dose response, biochemical, probe assessment (AID 673).
As for `O=C(Nc1ccc2nc(-c3ccco3)c(-c3ccco3)nc2c1)N1CCCCCC1`, the IC50 (usually the concentration needed to halve the response being measured) is greater than 50 µM.
`Cc1ccc2c(c1C)NC(C(=O)O)C1CC=CC21` (stereo not drawn): the IC50 was greater than 50 µM.
The compound `O=C(O)C1Nc2c(O)cccc2C2C=CCC12` (stereo not drawn) registered an IC50 greater than 50 µM.
In turn, `Cn1ncnc2c(=O)n(C)c(=O)nc1-2` registered an IC50 of 0.433 µM.
The result for `[O-]/[N+](=C\c1ccncc1)c1ccccc1` reads greater than 50 µM.
As for `COc1cccc2c(C)c(C(=O)O)[nH]c12`, the IC50 was greater than 50 µM.
The result for `O=C1C=Cc2ccccc2C1=O` [1,2-dihydronaphthalene-1,2-dione] reads greater than 50 µM; that for `CCn1nc(-c2ccccc2)nc2c(=O)n(C)c(=O)nc1-2` [1-Ethyl-6-methyl-3-phenyl-1H-pyrimido[5,4-e][1,2,4]triazine-5,7-dione], 0.615 µM.
The same measure for `[O-]/[N+](=C\c1ccc(OC(F)F)cc1)c1ccccc1` [1-[4-(difluoromethoxy)phenyl]-N-phenylmethanimine oxide]: greater than 50 µM; for `CCn1nc(-c2cccs2)nc2c(=O)n(C)c(=O)nc1-2` [1-ethyl-6-methyl-3-thiophen-2-yl-pyrimido[5,4-e][1,2,4]triazine-5,7-dione]: 0.629 µM; for `O=C1Cc2ccccc2C(=O)N1CCc1ccccc1` [2-(2-phenylethyl)-4H-isoquinoline-1,3-dione]: 19.8 µM.
The same measure for `N#Cc1c(N)sc(=S)c2c1CCN(Cc1ccccc1)C2` [3-Amino-7-benzyl-1-thioxo-5,6,7,8-tetrahydro-1H-thiopyrano[3,4-c]pyridine-4-carbonitrile]: 2.74 µM; for `Cc1ccccc1Nc1cc2ccccc2c(O)n1` [3-[(2-methylphenyl)amino]-2H-isoquinolin-1-one]: 12.1 µM.
`COc1ccc(Br)cc1C=c1sc2nc(-c3ccco3)nn2c1=O` [5-[(5-bromanyl-2-methoxy-phenyl)methylidene]-2-(furan-2-yl)-[1,3]thiazolo[3,2-b][1,2,4]triazol-6-one]: the IC50 was greater than 50 µM.
The result for `CC(=O)Nc1cc(OC(C)=O)c2nonc2c1OC(C)=O` [Acetic acid 7-acetoxy-5-acetylamino-benzo[1,2,5]oxadiazol-4-yl ester] reads greater than 50 µM.
In turn, `CCOC(=O)C(C(=O)OCC)c1cc(Br)c2noc3c2c1C(=O)c1ccccc1-3` [MLS000038842] registered an IC50 greater than 50 µM.
The result for `Oc1nc(Nc2ccccc2)cc2ccccc12` [MLS000043701] reads 12.6 µM.
The result for `O=C1C=Cc2ccccc2/C1=C/NC12CN3CCN(CN(C3)C1)C2` [MLS000071484] reads greater than 50 µM; that for `Cc1c(N=c2c(=O)c3ccccc3c2=O)c(=O)n(-c2ccccc2)n1C` [MLS000105950], 19.8 µM; that for `CCOc1ccc2noc3c2c1C(=O)c1ccccc1-3` [MLS000106837], greater than 50 µM.
For `COc1ccc2noc3c2c1C(=O)c1ccccc1-3` [MLS000106874], the IC50 was greater than 50 µM.
The result for `c1ccc(CSc2nnc(-c3ccco3)c(-c3ccco3)n2)cc1` [MLS-0029114.0001] reads greater than 50 µM; that for `Cc1ccc2c(c1)C1C=CCC1C(C(=O)O)N2` (stereo not drawn) [MLS-0067149.0001], greater than 50 µM.
Consider `O=C(NC1(O)C(=O)c2ccccc2C1=O)c1ccccc1` [N-(2-hydroxy-1,3-dioxo-2-indenyl)benzamide], for which half-maximal inhibition (IC50) required 48.7 µM. This counts as double-digit micromolar.
In turn, `COc1cccc2c1NC(C(=O)O)C1CC=CC21` (stereo not drawn) [SMR000009698] returned an IC50 greater than 50 µM.
The same measure for `O=C(OC1CCCCC1)c1ccc2c(c1)C1C=CCC1C(C(=O)O)N2` (stereo not drawn) [SMR000019385]: greater than 50 µM; for `N#Cc1c(N2CCCC2)nc(N)c2c(N)nc(N3CCCC3)cc12` [SMR000061605]: 3.71 µM; for `Nc1cccc2cnccc12` [isoquinolin-5-amine]: greater than 50 µM.

For the origin of these results see BindingDB's records for doi:10.7270/Q2DB806H (University of Pittsburgh, 2007).
